Measurements as given in the supplement of paper PMC10307832.

Experiments:
Assay in all cases: relative viability (nuclei count vs DMSO), 5 days (fraction); higher = more cells survive
[1] = compound: C1=CC=C2C(=C1)N=C(S2)C(C#N)C3=NC(=NC=C3)NCCC4=CN=CC=C4
Summary of the method: (§1)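 Five library-drug doses spaced by √10 were pinned onto vehicle-anchored 1536-well plates of lung cancer cell lines that had been kept overnight at 37 °C. Cells went 5 days without medium change, then were fixed, permeabilised and Hoechst-stained together, imaged at 4× and counted by MetaXpress. Viability is the ratio of treated-well to vehicle-well nuclei, taken as a median over plates. Plates required control CV below 25% and at least one doubling.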

Vandetanib = compound: COc1cc2/c(=N/c3ccc(Br)cc3F)nc[nH]c2cc1OCC1CCN(C)CC1 [Vandetanib]
Summary of the method: as §1

CUDC-101 + Foretinib = compound: C#Cc1cccc(Nc2ncnc3cc(OC)c(OCCCCCCC(=O)NO)cc23)c1 [CUDC-101] + COc1cc2c(Oc3ccc(NC(=O)C4(C(=O)Nc5ccc(F)cc5)CC4)cc3F)ccnc2cc1OCCCN1CCOCC1 [Foretinib] (partner 0.25 µM)
Summary of the method: (§2)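 Cells from lung cancer lines were seeded into 1536-well plates and, one day later, dosed by pin tool. Treatments were either a single drug or a fixed dose of an anchor drug with five library-drug doses (not always all listed) in √10 steps. After 5 days, nuclei were stained in a one-step fixation (final 0.05% Triton X-100, 1% formaldehyde, 1 ug/ml Hoechst) and counted on 4× images, and relative viability is the treated-to-vehicle nuclei ratio, as the median of duplicate plates.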

NVP-TAE684 + Pemetrexed = compound: COc1cc(N2CCC(N3CCN(C)CC3)CC2)ccc1Nc1ncc(Cl)c(Nc2ccccc2S(=O)(=O)C(C)C)n1 [NVP-TAE684] + Nc1nc2[nH]cc(CCc3ccc(C(=O)N[C@@H](CCC(=O)O)C(=O)O)cc3)c2c(=O)[nH]1 [Pemetrexed] (partner 0.2 µM)
Summary of the method: as §2

Cell Line | relative viability ([1]; 0.005 µM) | relative viability ([1]; 0.01581 µM) | relative viability ([1]; 0.05 µM) | relative viability ([1]; 0.1581 µM) | relative viability ([1]; 0.5 µM) | relative viability (Vandetanib; 0.02 µM) | relative viability (Vandetanib; 0.06325 µM) | relative viability (Vandetanib; 0.2 µM) | relative viability (Vandetanib; 0.6325 µM) | relative viability (Vandetanib; 2 µM) | relative viability (CUDC-101 + Foretinib; first compound 0.01 µM) | relative viability (CUDC-101 + Foretinib; first compound 0.03162 µM) | relative viability (CUDC-101 + Foretinib; first compound 0.1 µM) | relative viability (CUDC-101 + Foretinib; first compound 0.3162 µM) | relative viability (CUDC-101 + Foretinib; first compound 1 µM) | relative viability (NVP-TAE684 + Pemetrexed; first compound 0.2 µM) | relative viability (NVP-TAE684 + Pemetrexed; first compound 0.6325 µM) | relative viability (NVP-TAE684 + Pemetrexed; first compound 2 µM)
NCI-H1734 | 0.787 | 0.91 | 0.963 | 1.14 | 0.871 | 0.954 | 0.93 | 1.03 | 0.894 | 1.01 | 0.968 | 0.775 | 0.863 | 0.898 | 0.451 | 0.47 | 0.437 | 0.348
NCI-H1755 | 1.03 | 1.15 | 0.985 | 1.09 | 0.99 | 1.02 | 0.952 | 0.975 | 0.973 | 0.96 | 0.899 | 0.905 | 0.99 | 1.01 | 0.903 | 0.394 | 0.583 | 0.384
NCI-H1793 | 0.716 | 0.906 | 0.852 | 1.05 | 0.925 | 1.01 | 0.821 | 0.833 | 0.765 | 0.781 | 0.669 | 0.449 | 0.628 | 0.5 | 0.403 | 0.929 | 0.651 | 0.779
NCI-H1915 | 0.925 | 1.03 | 0.969 | 1.1 | 0.94 | 0.956 | 0.984 | 1.01 | 0.97 | 0.985 | 1.09 | 1.04 | 1.08 | 1.09 | 0.707 | 0.537 | 0.463 | 0.472
NCI-H1944 | 0.914 | 0.956 | 0.958 | 1.03 | 0.951 | 0.909 | 0.92 | 0.902 | 0.813 | 0.965 | 0.931 | 0.691 | 0.861 | 0.612 | 0.397 | 0.705 | 0.585 | 0.631
NCI-H1975 | 0.858 | 0.912 | 1.01 | 1.1 | 0.653 | 0.931 | 0.888 | 0.871 | 0.997 | 0.805 | 0.856 | 1.03 | 0.99 | 1.04 | 0.808 | 0.297 | 0.283 | 0.236
NCI-H1993 | 0.901 | 0.882 | 0.929 | 1.04 | 0.842 | 1 | 0.922 | 0.944 | 0.871 | 0.754 | 0.862 | 0.791 | 0.839 | 0.734 | 0.612 | 0.518 | 0.555 | 0.436
NCI-H2009 | 0.938 | 1 | 1.04 | 1.04 | 1.02 | 0.963 | 0.972 | 1.01 | 1.03 | 1.05 | 1.2 | 1.18 | 1.36 | 1.28 | 1.14 | 1.06 | 1.01 | 0.894
NCI-H2023 | 0.887 | 1.02 | 0.889 | 1.16 | 0.935 | 0.909 | 0.947 | 1.02 | 0.917 | 0.936 | 0.759 | 0.672 | 0.836 | 0.764 | 0.615 | 0.258 | 0.186 | 0.123
NCI-H2085 | 0.928 | 0.983 | 0.977 | 1.01 | 0.998 | 1.04 | 0.99 | 0.99 | 1.01 | 0.931 | 0.964 | 0.929 | 0.823 | 0.996 | 0.697 | 1.01 | 0.874 | 0.813
NCI-H2087 | 0.993 | 1.03 | 1.03 | 1.13 | 0.981 | 0.934 | 0.938 | 1.02 | 1.15 | 1.14 | 1.33 | 1.03 | 1.08 | 1.04 | 0.664 | 0.679 | 0.707 | 0.57
NCI-H2126 | 0.912 | 0.977 | 0.946 | 1.05 | 0.864 | 0.96 | 0.91 | 0.965 | 0.906 | 0.903 | 1.25 | 0.971 | 1.08 | 1.26 | 1.01 | 0.734 | 0.67 | 0.554
NCI-H2170 | 0.894 | 0.991 | 0.949 | 1 | 0.913 | 0.944 | 0.917 | 1 | 0.97 | 0.989 | 0.978 | 0.973 | 1.05 | 0.995 | 0.903 | 0.274 | 0.27 | 0.228
NCI-H2228 | 0.839 | 1.12 | 0.962 | 1.17 | 0.956 | 1.04 | 0.983 | 0.836 | 1.12 | 0.809 | 0.763 | 0.939 | 1.11 | 0.964 | 0.719 | 0.29 | 0.332 | 0.121
NCI-H2342 | 0.82 | 0.978 | 0.874 | 1 | 0.938 | 1 | 0.964 | 0.953 | 0.95 | 0.949 | 0.995 | 1.02 | 1.03 | 1.08 | 0.946 | 0.93 | 0.771 | 0.493
NCI-H2347 | 1.11 | 1.09 | 0.995 | 1.05 | 1.02 | 1.03 | 0.785 | 1.03 | 1.06 | 0.988 | 0.888 | 0.948 | 0.902 | 0.99 | 0.689 | 0.431 | 0.38 | 0.406
NCI-H2405 | 0.981 | 0.943 | 0.962 | 0.988 | 0.981 | 0.993 | 0.785 | 1.1 | 1.06 | 0.689 | 1.09 | 0.991 | 1.08 | 1.16 | 1.04 | 1.17 | 0.901 | 0.567
